Experimental data: patent US20240261319A1, “ANTI-FUNGAL COMPOSITION DERIVED FROM HESPERALOE” (Kimberly-Clark Worldwide, Inc., priority 2021, published 2024)
≈ marks a conversion by molar mass, not a printed value.

Tested on: Candida albicans
Assay: Minimum inhibitory concentration (MIC) testing, two-fold broth dilution in YPD, OD620
Type: cell-based
Conditions: C. albicans (ATCC) in YPD broth, two-fold dilutions starting at 200, 30° C., 18-24 hours
Method: Candida albicans, was purchased from ATCC. Thirty-five samples derived from KC Hesperaloe funifera, crude extracts and selected fractions (Table 1) were screened for the inhibition of growth of candida.
Minimum inhibitory concentration (MIC) testing was performed. Two-fold dilutions of sample prepared in C. albicans growth medium (Yeast Peptone Dextrose, YPD) broth, starting at 200 µg/mL. Then inoculum added and incubated at 30° C. for 18-24 hours, and OD620 was determined. T-test was used to determine statistically significant decreases in growth ([…]). Controls included Ketoconazole (50 µg/mL, Keto50), Neg (media with DMSO only, no inoculum), Pos (media with DMSO and inoculum), and YPD (broth only). In wells with decreased growth, wells were mixed by pipetting, and […] samples were plated on YPD agar to determine whether viable C. albicans were present, as an estimation of minimum fungicidal concentration (MFC).

## CC(=O)N1CCN(c2ccc(OCC3COC(Cn4ccnc4)(c4ccc(Cl)cc4Cl)O3)cc2)CC1 (stereo not shown) [Ketoconazole]
  MIC: 25 mg/mL (≈ 47 mM)
